Square brackets hold non-standard residues; d marks the D form. Peptide text beside a SMILES is read from it. PEG8 = NCCOCCOCCOCCOCCOCCOCCOCCOCCC(=O)O
How the values were obtained:
human IgG antibody = test: SPR evaluation of antibody binding properties of ligand immobilized on CM5 sensor chip; conditions: for dissociation rate Koff: SPR, human IgG antibody, 25° C., HEPES buffer, fitting with BIAevaluation4.1
Description: The association rate Kon [nM/s] and the dissociation rate Koff [l/s ] of an antibody were calculated from the binding reaction curve, and also the dissociation constant Kd [nM] in the binding reaction of polypeptide 1 with a human IgG antibody was calculated.

[1] = target: Bovine Serum Albumin (BSA) (Bos taurus, UniProt P02769); test: SPR evaluation of selectivity (binding of BSA to immobilized carrier)
Sequence of Bovine Serum Albumin (BSA) (P02769 25-607): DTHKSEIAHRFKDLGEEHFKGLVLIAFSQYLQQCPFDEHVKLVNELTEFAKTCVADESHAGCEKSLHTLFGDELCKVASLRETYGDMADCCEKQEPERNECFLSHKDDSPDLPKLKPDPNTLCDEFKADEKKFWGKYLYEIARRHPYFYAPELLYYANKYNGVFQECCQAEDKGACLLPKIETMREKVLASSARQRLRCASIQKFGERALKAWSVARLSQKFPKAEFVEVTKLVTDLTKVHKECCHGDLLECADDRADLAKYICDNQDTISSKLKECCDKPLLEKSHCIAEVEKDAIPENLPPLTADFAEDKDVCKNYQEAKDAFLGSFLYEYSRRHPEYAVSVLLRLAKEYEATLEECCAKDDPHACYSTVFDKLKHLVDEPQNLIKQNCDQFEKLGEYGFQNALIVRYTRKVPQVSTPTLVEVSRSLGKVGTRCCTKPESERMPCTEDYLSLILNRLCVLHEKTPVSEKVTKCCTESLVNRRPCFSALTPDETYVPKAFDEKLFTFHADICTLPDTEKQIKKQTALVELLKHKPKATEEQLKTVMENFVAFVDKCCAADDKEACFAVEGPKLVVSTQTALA
Description: A commercially available CM5 (carboxymethyl dextran introduction type, manufactured by GE Healthcare) sensor chip was set on a surface plasmon resonance (SPR) apparatus Biacore (manufactured by GE Healthcare), HEPES buffer (20 mM HEPES-HCl, 150 mM NaCl, pH 7.4) for SPR was stabilized at a flow rate of 10 μL/min, and 70 μL of a mixed aqueous solution of 0.2 M 1-ethyl-3-(3-dimethylaminopropyl)carbodiimide (EDC, manufactured by Wako Pure Chemical Industries, Ltd.) and 0.04 M N-hydroxysuccinimide (NHS, manufactured by Wako Pure Chemical Industries, Ltd.) was added. Then, 500 μL of a sample solution of polypeptide 1 diluted to 100 μM with the above-mentioned HEPES buffer and treated with a 0.20 μm PTFE filter (manufactured by [sequence]) was supplied to a carrier sample, blocked by an ethanolamine solution, and washed with an aqueous sodium hydroxide solution, followed by immobilization to prepare an immobilized carrier.
1000 nM of Bovine Serum Albumin (BSA, manufactured by Sigma-Aldrich) was added to the immobilized carrier A prepared in the above (1) at 25° C. over 10 min, and the binding amount after 10 minutes in HEPES buffer was measured by SPR.

[2] = Evaluation of alkali resistance (1N NaOH, then antibody-binding amount by SPR); assay type: physicochemical
Description: The synthesized polypeptide 1 was immersed in 1N NaOH at room temperature for 1 hour, and then the ligand was immobilized as in the above (1).

[3] = Evaluation of temporal stability (solution stored at 40° C. for one month, then antibody-binding amount by SPR)
Description: A solution of the synthesized polypeptide 1 was stored in a constant-temperature zone (40° C.) for one month, and then the ligand was immobilized as in the above (1).

Row | Molecule | dissociation rate Koff (human IgG antibody) [s⁻¹] | other results
1 | H-EQQSAFYEILH-OH [Example 11] | 0.00018 | –
2 | H-DAQQSAFY-OH [Example 17] | 0.00013 | –
3 | H-EGQNAFY-OH [Example 5, EGQNAFY] | 0.0002 | –
4 | H-EQQNAFY-NH2 [Example 19, EQQNAFY-NH2] | 0.00015 | –
5 | H-EAQQSAFY-OH [Example 14] | 0.00014 | –
6 | Ac-EQQNAFYK-OH [Example 20] | 0.00014 | –
7 | H-EAQQNAFY-OH [Example 16] | 0.00019 | –
8 | Ac-KKKEQQNAFYEILHKKK-OH [Example 23] | 0.00016 | –
9 | H-DQSAFY-OH [Example 18, DQSAFY] | 0.00019 | –
10 | C[C@H](NC(=O)[C@H](CC(N)=O)NC(=O)[C@H](CCC(N)=O)NC(=O)[C@H](CCC(N)=O)NC(=O)[C@H](CCC(=O)O)NC(=O)CCOCCOCCOCCOCCOCCOCCOCCOCCN)C(=O)N[C@@H](Cc1ccccc1)C(=O)N[C@@H](Cc1ccc(O)cc1)C(=O)N[C@@H](CCC(=O)O)C(=O)O [Example 24] (H-[PEG8]EQQNAFYE-OH) | 0.00013 | –
11 | Comparative Example 1: wild-type protein A (manufactured by Repligen Corporation) [reference compound] | 0.00025 | –
12 | Ac-EQQNAFYEILHK-OH [Example 21] | 0.00016 | –
13 | H-KKKEQQNAFYKKK-OH [Example 6] | 0.00015 | –
14 | H-EQNAFY-OH [Example 9, EQNAFY] | 0.00017 | –
15 | H-QQNAFYEI-OH [Comparative Example 4, reference compound] | 0.00024 | selectivity (in words) [1]: poor; antibody binding properties (in words) (human IgG antibody): poor
16 | CC(=O)N[C@@H](CCC(=O)O)C(=O)N[C@@H](CCC(N)=O)C(=O)N[C@@H](CCC(N)=O)C(=O)N[C@@H](CC(N)=O)C(=O)N[C@@H](C)C(=O)N[C@@H](Cc1ccccc1)C(=O)N[C@@H](Cc1ccc(O)cc1)C(=O)NCCOCCOCCOCCOCCOCCOCCOCCOCCC(=O)N[C@@H](CCCCN)C(=O)NCCOCCOCCOCCOCCOCCOCCOCCOCCC(=O)N[C@@H](CCC(=O)O)C(=O)N[C@@H](CCC(N)=O)C(=O)N[C@@H](CCC(N)=O)C(=O)N[C@@H](CC(N)=O)C(=O)N[C@@H](C)C(=O)N[C@@H](Cc1ccccc1)C(=O)N[C@@H](Cc1ccc(O)cc1)C(=O)O [Example 25, Ac-EQQNAFY-(peg)8-K-(peg)8-EQQNAFY] (Ac-EQQNAFY[PEG8]K[PEG8]EQQNAFY-OH) | 0.00019 | –
17 | H-EQQSAFY-OH [Example 10, EQQSAFY] | 0.00015 | –
18 | NCCNc1nc(NCCc2ccc(O)cc2)nc(Nc2ccccc2)n1 [Comparative Example 3] | 0.00065 | alkali resistance (in words) [2]: sufficient; selectivity (in words) [1]: insufficient; antibody binding properties (in words) (human IgG antibody): insufficient; temporal stability (in words) [3]: sufficient
19 | H-EQQNAFY-OH [Example 1, EQQNAFY] | 0.00017 | –
20 | Ac-KKKEQQNAFYKKK-OH [Example 22] | 0.00015 | –
21 | H-DQQSAFYEILH-OH [Example 13] | 0.00015 | –
22 | H-EQSAFY-OH [Example 15, EQSAFY] | 0.00014 | –
23 | H-EQQNAFYGGGKGGGEQQNAFY-OH [Example 8] | 0.00015 | –
24 | H-KEQQNAFY-OH [Example 2] | 0.00013 | –
25 | H-KKKEQQNAFYEILHKKK-OH [Example 7] | 0.00016 | –
26 | H-DQQSAFY-OH [Example 12, DQQSAFY] | 0.00015 | –
27 | H-EQQNAFYEILH-OH [Example 3] | 0.00017 | –
28 | H-EQQNAFYEILHL-OH [Example 4] | 0.00013 | –

From patent publication US10450344B2, “Antibody-binding polypeptide, antibody-binding fusion polypeptide, and adsorption material” (FUJIFILM Corporation, priority 2014, dated 2019)
